Here are results for eight molecules from publication PMC3318891, “Insights into the In Vivo Regulation of Glutamate Dehydrogenase from the Foot Muscle of an Estivating Land Snail” (Enzyme Research, 2012).

Holding throughout (format): biochemical
The subject of assay [1] is T1, control Otala lactea foot muscle GDH.
T1 construct: native enzyme purified from foot muscle of active (control) snails on GTP-agarose; low-phosphate form, sites unknown
The assay can be described thus: NADH absorbance at […] nm, glutamate-synthesizing direction. The settings on record: activation constant (half-maximal activation, not association constant); suboptimal substrates 0.2 mM α-ketoglutarate, 0.15 mM NADH, 40 mM NH4Cl; HEPES pH 7.2.

For assay [2] the test system is unchanged. The assay is described as above. The following applies: inhibitor; suboptimal substrates 0.2 mM α-ketoglutarate, 0.15 mM NADH, 40 mM NH4Cl; HEPES pH 7.2.
Assay [3] shares this test system. The assay can be described thus: NADH absorbance at […] nm, glutamate-oxidizing direction. The following applies: no ADP, Tris-HCl pH 8.0.
Assay [4] relates to T2, 10 day estivated Otala lactea foot muscle GDH.
T2 construct: native enzyme purified from foot muscle of 10-day estivated snails on GTP-agarose; high-phosphate form, sites unknown
The assay is described as above. The following applies: no ADP, Tris-HCl pH 8.0.

For assay [5] the test system is unchanged. Briefly: NADH absorbance at […] nm, glutamate-synthesizing direction. The following applies: inhibitor; suboptimal substrates 0.2 mM α-ketoglutarate, 0.15 mM NADH, 40 mM NH4Cl; HEPES pH 7.2.
Assay [6] shares this test system. Briefly: NADH absorbance at […] nm, glutamate-oxidizing direction. The following applies: activation constant (half-maximal activation, not association constant); suboptimal substrates 10 mM L-glutamate, 0.5 mM NAD+; Tris-HCl pH 8.0.
The test system of assay [7] is T1, control Otala lactea foot muscle GDH. Described as above. The following applies: activation constant (half-maximal activation, not association constant); suboptimal substrates 10 mM L-glutamate, 0.5 mM NAD+; Tris-HCl pH 8.0.
The test system is the same in assay [8]. Briefly: NADH absorbance at […] nm, glutamate-synthesizing direction. The following applies: no ADP, 0.2 mM NADH, HEPES pH 7.2.
The test system of assay [9] is T2, 10 day estivated Otala lactea foot muscle GDH. The assay is described as above. The settings on record: no ADP; optimal co-substrates 100 mM NH4Cl, 0.2 mM NADH; HEPES pH 7.2.
Setting [10] is: optimal co-substrate 50 mM L-glutamate.
The mark [11] stands for this setting: optimal co-substrate 1.5 mM NAD+.

Molecules are shown by their SMILES.

The term EC50 denotes the concentration that produces a half-maximal response. A lower EC50 goes with an effect from little substance. Molecule `Nc1ncnc2c1ncn2[C@@H]1O[C@H](COP(=O)(O)O)[C@@H](O)[C@H]1O` [AMP] returned an EC50 in [1] of 270 ± 40 µM.

What is called IC50 is the concentration that inhibits the measured activity by half. The low end stands for greater potency, the high end for weaker potency. Regarding `Nc1ncnc2c1ncn2[C@@H]1O[C@H](COP(=O)(O)OP(=O)(O)OP(=O)(O)O)[C@@H](O)[C@H]1O` [ATP], the 50% inhibitory concentration (IC50) in assay [2] was found to be 7000 ± 1000 µM.

A word on the Km: it is the substrate concentration at which the rate is half of its maximum. On to `NC(=O)c1ccc[n+]([C@@H]2O[C@H](COP(=O)(O)OP(=O)(O)OC[C@H]3O[C@@H](n4cnc5c(N)ncnc54)[C@H](O)[C@@H]3O)[C@@H](O)[C@H]2O)c1` [NAD^+], for which the Km in [3] (setting [10]) came to 590 ± 80 µM; in assay [4] (setting [10]), 490 ± 20 µM.

As for `Nc1nc2c(ncn2[C@@H]2O[C@H](COP(=O)(O)OP(=O)(O)OP(=O)(O)O)[C@@H](O)[C@H]2O)c(=O)[nH]1` [GTP], the IC50 came to 0.15 ± 0.02 µM in assay [5] and 0.34 ± 0.02 µM in assay [2].

In the case of `Nc1ncnc2c1ncn2[C@@H]1O[C@H](COP(=O)(O)OP(=O)(O)O)[C@@H](O)[C@H]1O` [ADP], the EC50 in [6] is 3.5 ± 0.5 µM; in [7], 4.7 ± 0.7 µM.

Take `N[C@@H](CCC(=O)O)C(=O)O` [L-glutamate]: the Km is 900 ± 20 µM in [3] (setting [11]) and 840 ± 20 µM in assay [4] (setting [11]).

Consider `N` [NH4 ^+], for which the Km in assay [8] (optimal co-substrates 1 mM α-ketoglutarate) came out at 63000 ± 2000 µM.

For `O=C(O)CCC(=O)C(=O)O` [α-ketoglutarate], the figures for the Km in assay [9] and in [8] (optimal co-substrates 100 mM NH4Cl) were 550 ± 50 µM and 190 ± 30 µM, respectively.
